The values that follow come from BindingDB's records for doi:10.1124/mol.58.6.1601 (University of California Irvine, 2000).

Assay [1] concerns the target T1, Cysteinyl leukotriene receptor 2 (Homo sapiens, UniProt Q9NS75).
T1 sequence (Q9NS75 whole entry): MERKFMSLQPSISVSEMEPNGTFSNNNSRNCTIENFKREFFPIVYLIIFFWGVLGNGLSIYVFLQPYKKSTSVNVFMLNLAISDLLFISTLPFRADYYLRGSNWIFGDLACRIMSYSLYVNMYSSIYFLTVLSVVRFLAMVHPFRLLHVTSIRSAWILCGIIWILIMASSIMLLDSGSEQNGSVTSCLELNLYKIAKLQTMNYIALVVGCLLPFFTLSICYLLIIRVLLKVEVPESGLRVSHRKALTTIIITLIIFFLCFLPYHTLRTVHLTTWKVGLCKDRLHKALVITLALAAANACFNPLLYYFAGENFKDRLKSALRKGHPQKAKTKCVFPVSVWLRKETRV

For assay [2], the target named is T2, Cysteinyl leukotriene receptor 1 (Homo sapiens, UniProt Q9Y271).
T2 sequence (Q9Y271 whole entry): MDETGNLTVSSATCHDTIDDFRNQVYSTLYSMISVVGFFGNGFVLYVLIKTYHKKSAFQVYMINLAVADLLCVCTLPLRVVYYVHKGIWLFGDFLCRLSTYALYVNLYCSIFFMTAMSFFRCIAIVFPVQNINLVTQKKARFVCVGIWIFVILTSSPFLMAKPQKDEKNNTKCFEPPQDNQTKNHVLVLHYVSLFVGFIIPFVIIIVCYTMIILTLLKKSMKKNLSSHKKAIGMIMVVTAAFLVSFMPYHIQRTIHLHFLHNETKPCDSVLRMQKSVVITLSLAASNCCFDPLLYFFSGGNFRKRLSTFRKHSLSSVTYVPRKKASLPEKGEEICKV

For orientation: Ki means a measure of affinity in units of concentration, obtained from inhibition or displacement. Low readings indicate a stronger hold on the target, high ones a looser hold on the target. Regarding `CCCCC/C=C\C/C=C/C=C/C=C/[C@@H](Sc1ccc(C(=O)O)cc1)[C@@H](O)CCCC(=O)O` [CAS_134733-55-4], the Ki in assay [1] stood at 300 nM.

As to `CN(C)C(=O)CCSC(SCCC(=O)O)c1cccc(/C=C/c2ccc3ccc(Cl)cc3n2)c1` (stereo not drawn) [3-(((3-(2-(7-chloroquinoline-2-yl)ethenyl)phenyl)((3-dimethylamino-3-oxopropyl)thio)methyl)thio)propanoic acid], the results for the Ki in assay [1] and in assay [2] were 1000 nM and 10.4 nM, respectively.
